# Results taken from US11179412B2, “Methods of treating conditions involving elevated inflammatory response” (University of Pittsburgh—Of the Commonwealth System of …, priority 2017, dated 2021).
# Entries after “also recorded” stand apart in the source; their conditions may differ.
# Assays:
# RAW264.7 cells = experiment: Cell viability assay (CCK-8), RAW264.7; assay type: cell-based, mouse; conditions: 3′3′-cGAMP 10 μg/ml, ALK inhibitor 10 μM, 16 hours
# Description: (§1) Cells were seeded into 96-well plates and incubated with the indicated treatments. Subsequently, 100 μl fresh medium was added to cells containing 10 μl Cell Counting Kit-8 (CCK-8) solutions (Dojindo Laboratories) and incubated for 1 h (37° C., 5% CO2). Absorbance at 450 nm was measured using a microplate reader (Tecan).
# [1] = system: STING activation (IFNβ release) in iBMDMs; experiment: IFNβ release ELISA after STING ligand (or LPS) stimulation, iBMDMs; assay type: cell-based, mouse; conditions: iBMDMs; 3′3′-cGAMP 10 μg/ml, 16 hours; compound 10 μM
# Outline: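 iBMDMs were stimulated with a STING ligand such as 3′3′-cGAMP, or with LPS. Secreted IFNβ in culture medium was measured by commercial mouse or human IFNβ ELISA.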
# THP1 cells = experiment: Cell viability assay (CCK-8), THP1; assay type: cell-based, human; conditions: 3′3′-cGAMP 10 μg/ml, ALK inhibitor 10 μM, 16 hours
# Description: as §1
# iBMDMs = experiment: Cell viability assay (CCK-8), iBMDMs; assay type: cell-based, mouse; conditions: 3′3′-cGAMP 10 μg/ml, ALK inhibitor 10 μM, 16 hours
# Description: as §1
# pPMs = experiment: Cell viability assay (CCK-8), pPMs; assay type: cell-based, mouse; conditions: 3′3′-cGAMP 10 μg/ml, ALK inhibitor 10 μM, 16 hours
# Description: as §1
# [2] = system: STING activation (IFNβ release) in pPMs; experiment: IFNβ release ELISA, primary peritoneal macrophages (pPMs); assay type: cell-based, mouse; conditions: mouse pPMs; 3′3′-cGAMP 10 μg/ml, 16 hours; compound 10 μM
# Description: Mouse pPMs were isolated from C57BL/6J mice as previously described (69). In brief, eight-week-old female or male C57BL/6J mice were injected with 3.0% thioglycollate medium (2 mL/mouse) into the peritoneum. Three days after injection, mice were sacrificed and injected with 3 mL of 0.05% EDTA-PBS into the peritoneum to harvest peritoneal macrophages. Collected cells were centrifuged at 1000 rpm for 5 min at 4° C., and the cell pellet was washed with PBS and centrifuged again. The cell pellet was then suspended in Dulbecco's Modified Eagle Medium supplemented with 10% FBS and 1× Penicillin-Streptomycin and cultured in a culture dish.
# (§2) Macrophages or monocytes were treated with 3′3′-cGAMP (10 μg/ml, Invitrogen) for 16 hours in the absence or presence of one compound (10 μM) from the Target-selective Inhibitory Library (#L3500, Selleck Chemicals). Commercially available enzyme-linked immunosorbent assay (ELISA) kits were used to measure the concentrations of mouse IFNβ (Thermo Fisher Scientific) or human IFNβ (Thermo Fisher Scientific) in culture medium according to the manufacturer's instructions.
# [3] = system: STING activation (IFNβ release) in pPBMCs; experiment: IFNβ release ELISA, primary peripheral blood mononuclear cells (pPBMCs); assay type: cell-based; conditions: human pPBMCs; 3′3′-cGAMP 10 μg/ml, 16 hours; compound 10 μM
# Description: as §2
# [4] = system: STING signaling (TBK1, IRF3, p65, ALK, EGFR, AKT phosphorylation) in THP1 cells; experiment: Western blot of STING pathway protein phosphorylation, THP1; assay type: cell-based, human; conditions: 16 hours, 10 μM
# Description: (§3) For immunoblotting, cells were lysed in Cell Lysis Buffer (#9803, Cell Signaling Technology) with protease inhibitor cocktail (Promega), phosphatase inhibitor cocktail (Sigma), and 1 mM Na3VO4 (70). Cleared lysates were resolved by SDS-PAGE (#3450124, Bio-Rad) and then transferred onto PVDF membranes (#1704273, Bio-Rad). The membranes were blocked with Tris-buffered saline Tween 20 (TBST) containing 5% skim milk for 1 h at room temperature and then incubated with the indicated primary antibodies (1:1000-1:5000) overnight at 4° C. After being washed with TBST, the membranes were incubated with an HRP-linked anti-mouse IgG secondary antibody (#7076, Cell Signaling Technology) or HRP-linked anti-rabbit IgG secondary antibody (#7074, Cell Signaling Technology) for 1 h at room temperature. The membranes were washed three times in TBST and then visualized and analyzed with a ChemiDoc Touch Imaging System (#1708370, Bio-Rad). The intensities of bands were analyzed with Image Lab software.
# [5] = system: STING signaling (TBK1, IRF3, p65, ALK, EGFR, AKT phosphorylation) in RAW264.7 cells; experiment: Western blot of STING pathway protein phosphorylation, RAW264.7; assay type: cell-based, mouse; conditions: 16 hours, 10 μM
# Description: as §3
# [6] = system: STING signaling (TBK1, IRF3, p65, ALK, EGFR, AKT phosphorylation) in iBMDMs; experiment: Western blot of STING pathway protein phosphorylation, iBMDMs; assay type: cell-based, mouse; conditions: 16 hours, 10 μM
# Description: as §3
# [7] = 3′3′-cGAMP or c-di-AMP 10 μg/ml
Compound,fold increase in IFN-β release [1] [fold],other results
COc1cc(N2CCC(N3CCN(C)CC3)CC2)ccc1Nc1ncc(Cl)c(Nc2ccccc2P(C)(C)=O)n1 [AP26113],0.19,cell viability (RAW264.7 cells): did not affect cell viability; cell viability (THP1 cells): did not affect cell viability; cell viability (iBMDMs): did not affect cell viability; cell viability (pPMs): did not affect cell viability
COc1cc(N2CCC(N)CC2)ccc1Nc1ncc(Cl)c(-c2c[nH]c3ccccc23)n1 [AZD3463],0.05,cell viability (RAW264.7 cells): exhibited cytotoxicity; 3′3′-cGAMP-induced IFNβ release [2]: confirmed their inhibitory properties; 3′3′-cGAMP-induced IFNβ release [3]: confirmed their inhibitory properties; 3′3′-cGAMP-induced IFNβ release [1]: blocked; also recorded: diminished; cell viability (THP1 cells): exhibited cytotoxicity; cell viability (iBMDMs): exhibited cytotoxicity; cell viability (pPMs): exhibited cytotoxicity
CC(C)NC[C@@H](C(=O)N1CCN(c2ncnc3c2[C@H](C)C[C@H]3O)CC1)c1ccc(Cl)cc1 [GDC-0068],0.86,"STING ligand-induced phosphorylation of TBK1, IRF3, and p65 [4, 7]: diminished; 3′3′-cGAMP- or c-di-AMP-induced phosphorylation of ALK, EGFR, and AKT ([4]; ligand 10 μg/ml): only blocked the phosphorylation of AKT, but not ALK or EGFR; STING ligand-induced phosphorylation of TBK1, IRF3, and p65 [5, 7]: diminished; 3′3′-cGAMP- or c-di-AMP-induced phosphorylation of ALK, EGFR, and AKT ([5]; ligand 10 μg/ml): only blocked the phosphorylation of AKT, but not ALK or EGFR; STING ligand-induced phosphorylation of TBK1, IRF3, and p65 [6, 7]: diminished; 3′3′-cGAMP- or c-di-AMP-induced phosphorylation of ALK, EGFR, and AKT ([6]; ligand 10 μg/ml): only blocked the phosphorylation of AKT, but not ALK or EGFR"
O=C(/C=C\n1cnc(-c2cc(C(F)(F)F)cc(C(F)(F)F)c2)n1)NNc1cnccn1 [KPT-330],0.05,3′3′-cGAMP-induced IFNβ release [2]: confirmed their inhibitory properties; 3′3′-cGAMP-induced IFNβ release [3]: confirmed their inhibitory properties; 3′3′-cGAMP-induced IFNβ release [1]: blocked
C[C@@H]1CN(CC(=O)Nc2ccc3c(c2)Cc2cccc(-c4cc(=O)cc(N5CCOCC5)o4)c2S3)C[C@H](C)O1 [KU-60019],0.06,3′3′-cGAMP-induced IFNβ release [2]: confirmed their inhibitory properties; 3′3′-cGAMP-induced IFNβ release [3]: confirmed their inhibitory properties; 3′3′-cGAMP-induced IFNβ release [1]: blocked
"Cl.NC(=O)c1cnc(N[C@@H]2CCCC[C@@H]2N)nc1Nc1cccc(-n2nccn2)c1 [PRT062607 (P505-15, BIIB057) HCl]",0.07,3′3′-cGAMP-induced IFNβ release [2]: confirmed their inhibitory properties; 3′3′-cGAMP-induced IFNβ release [3]: confirmed their inhibitory properties; 3′3′-cGAMP-induced IFNβ release [1]: blocked
C[C@@H](c1ncncc1F)[C@](O)(Cn1cncn1)c1ccc(F)cc1F [Voriconazole],2.35,
c1ccc(NCc2ccc(CNc3ccccn3)cc2)nc1 [WZ811],1.67,
C=CC(=O)Nc1cccc(Oc2nc(Nc3ccc(N4CCN(C)CC4)cc3OC)ncc2Cl)c1 [WZ4002],1.42,
CCC(=O)Nc1cccc(Oc2nc(Nc3ccc(N4CCN(C)CC4)cc3OC)ncc2Cl)c1 [WZ4003],0.12,
Cc1cc(-c2ccc(CC(=O)Nc3ccc(-c4cccnc4)cc3)cc2)ccn1 [Wnt-059 (C59)],0.13,
Oc1nc(-c2ccc(C(F)(F)F)cc2)nc2c1CSCC2 [XAV-939],1.00,
CC(C)OC(=O)C1=CN(C(=O)c2ccc(F)c(F)c2)CC(C)(C)c2c1[nH]c1ccccc21 [XL335],0.26,
CCOc1cc(N2CCC(O)CC2)ccc1Nc1ncc2c(n1)N(C)c1ccccc1C(=O)N2C [XMD8-92],2.38,
"COCCn1c2c([n+](Cc3cnccn3)c1C)C(=O)c1ccccc1C2=O [YM155 (Sepantronium Bromide), Sepantronium Bromide]",0.30,
C[C@H](NC(=O)Cc1cc(F)cc(F)c1)C(=O)N[C@@H]1C(=O)N(C)c2ccccc2-c2ccccc21 [YO-01027],1.74,
Cc1cc(C)nc(NS(=O)(=O)c2ccc(NC(=S)NC(=O)COc3ccc(Br)cc3Cl)cc2)n1 [ZCL278],2.52,
COc1cc2ncnc(Nc3ccc(Cl)cc3F)c2cc1OC [ZM 306416],0.14,
COc1cc2c(Nc3ccc(NC(=O)c4ccccc4)cc3)ncnc2cc1OCCCN1CCOCC1 [ZM 447439],0.69,
O=c1ncccn1[C@@H]1O[C@H](CO)[C@@H](O)[C@H]1O [Zebularine],1.50,

Compound,fold increase in IFN-β release [1] [fold],other results
"COc1nc(C)cnc1NS(=O)(=O)c1cccnc1-c1ccc(-c2nnco2)cc1 [Zibotentan (ZD4054), Zibotentan]",1.17,
"O[C@@H](COc1cccc2ncccc12)CN1CCN([C@@H]2c3ccccc3[C@@H]3[C@H](c4ccccc42)C3(F)F)CC1 [Zosuquidar (LY335979) 3HCl, Zosuquidar]",4.10,
(−)-MK 801 Maleate,4.76,
(−)-Parthenolide,0.16,
HO-3867,0.52,
HSP990 (NVP-HSP990),0.26,
IM-12,2.17,
Ifenprodil Tartrate,1.71,
KX2-391,0.77,
Maraviroc,2.50,
OG-L002,1.06,
PF-04620110,3.43,
Pifithrin-μ,0.16,
S3I-201,0.88,
SN-38,1.72,
SNS-314 Mesylate,1.10,
Tropicamide,2.09,
VU 0357121,1.49,
VU 0364439,1.60,
VU 0364770,2.00,
